# Experimental data taken from ChEMBL document CHEMBL5543158, “Design of Evodiamine-Glucose Conjugates with Improved In Vivo Antitumor Activity” (J Med Chem, 2024).
# The source made the active and inactive calls. No cut-off for these calls is given here.
# What was measured:
# [1] = test system: HCT-116; test: Induction of apoptosis in 100 pmol GLUT1 siRNA treated human HCT-116 cells assessed as late apoptotic cells at 50 nM incubated for 48 hrs (reference value: 17.13%); format: functional
# [2] = Half life in mouse at 20 mg/kg, ip measured upto 24 hrs; format: ADME, organism-based; conditions: in vivo
# [3] = Half life in mouse at 10 mg/kg, ip measured upto 24 hrs; format: ADME, organism-based; conditions: in vivo
# [4] = test system: HCT-116; test: Induction of apoptosis in human HCT116 cells assessed as accumulation of cells at G2 phase at 0.02 uM measured after 48 hrs by Annexin V-PI Flow cytometry assay (reference value: 17.63%); format: functional
# [5] = test system: HCT-116; test: In vivo antitumor effect in human HCT-116 cells xenografted mouse model assessed as inhibition of tumor cell proliferation by measuring Ki67 at 10 to 20 mg/kg, ip twice a day administered 21 consecutive days by TUNEL based assay; format: functional, organism-based; conditions: dose 10-20 mg/kg
# [6] = Tmax in mouse at 10 mg/kg, ip measured upto 24 hrs; format: ADME, organism-based; conditions: in vivo
# [7] = test system: HCT-116; test: In vivo antitumor effect in human HCT-116 cells xenografted mouse model assessed as tumor growth inhibition at 10 mg/kg, ip twice a day administered 21 consecutive days; format: functional; conditions: read-out: TGI
# [8] = Stability of the compound in mouse serum assessed as compound remaining measured upto 120 mins; format: ADME, cell-free; conditions: read-out: Stability
# [9] = test system: HCT-116; test: Induction of apoptosis in human HCT116 cells assessed as accumulation of cells at S phase at 0.2 uM measured after 48 hrs by Annexin V-PI Flow cytometry assay (reference value: 31.25%); format: functional
# [10] = target: T1, DNA topoisomerase 1 (Homo sapiens) (UniProt P11387); test: Inhibition of DNA topoisomerase I (unknown origin) mediated supercoiled DNA relaxation activity at 100 uM by agarose gel electrophoresis analysis
# T1 sequence (whole entry): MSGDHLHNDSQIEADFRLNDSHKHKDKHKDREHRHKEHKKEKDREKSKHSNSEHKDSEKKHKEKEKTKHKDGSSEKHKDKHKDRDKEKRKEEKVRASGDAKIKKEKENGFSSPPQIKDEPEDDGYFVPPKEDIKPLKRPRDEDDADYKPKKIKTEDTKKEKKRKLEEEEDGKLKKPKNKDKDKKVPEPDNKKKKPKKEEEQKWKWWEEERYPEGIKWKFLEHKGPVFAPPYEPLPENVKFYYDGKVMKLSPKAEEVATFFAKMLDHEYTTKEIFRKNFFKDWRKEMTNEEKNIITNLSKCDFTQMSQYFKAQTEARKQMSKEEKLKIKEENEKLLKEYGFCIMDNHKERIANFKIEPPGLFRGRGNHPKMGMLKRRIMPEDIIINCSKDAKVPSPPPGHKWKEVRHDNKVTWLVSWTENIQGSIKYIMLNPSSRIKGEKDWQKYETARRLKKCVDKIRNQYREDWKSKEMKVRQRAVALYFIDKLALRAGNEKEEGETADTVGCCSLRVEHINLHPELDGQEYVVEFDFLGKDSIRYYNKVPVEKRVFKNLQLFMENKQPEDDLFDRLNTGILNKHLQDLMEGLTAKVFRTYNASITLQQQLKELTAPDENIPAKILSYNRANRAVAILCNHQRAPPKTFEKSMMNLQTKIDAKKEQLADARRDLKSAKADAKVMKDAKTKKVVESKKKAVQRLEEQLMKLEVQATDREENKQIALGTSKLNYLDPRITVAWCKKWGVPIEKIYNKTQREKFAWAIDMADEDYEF
# [11] = Solubility of the compound in double distilled water measured upto 30 mins by UV-vis spectrophotometry; format: physicochemical
# [12] = Cmax in mouse at 10 mg/kg, ip measured upto 24 hrs; format: ADME, organism-based; conditions: in vivo
# [13] = test system: HCT-116; test: Induction of apoptosis in human HCT116 cells assessed as accumulation of cells at G2 phase at 0.05 uM measured after 48 hrs by Annexin V-PI Flow cytometry assay (reference value: 17.63%); format: functional
# [14] = test system: HCT-116; test: Pro-oxidant effect in human HCT-116 cells assessed as induction of reactive oxygen level (ROS) measured after 12 hrs by 2',7'-dichloro-fluorescein diacetate (DCFH-DA) fluorescent probe based flow cytometry; format: functional, cell-based; conditions: dose 0.02-0.5 µM
# [15] = AUC (0 to t)in mouse at 20 mg/kg, ip measured upto 24 hrs; format: ADME, organism-based; conditions: in vivo
# [16] = species on record: Homo sapiens; test: Inhibition of DNA topoisomerase 2 (unknown origin) mediated supercoiled DNA relaxation activity at 50 uM by agarose gel electrophoresis analysis
# [17] = test system: HCT-116; test: Induction of apoptosis in human HCT116 cells assessed as accumulation of cells at G1 phase at 0.2 uM measured after 48 hrs by Annexin V-PI Flow cytometry assay (reference value: 51.12%); format: functional
# [18] = test system: HCT-116; test: Induction of apoptosis in human HCT116 cells assessed as accumulation of cells at G1 phase at 0.05 uM measured after 48 hrs by Annexin V-PI Flow cytometry assay (reference value: 51.12%); format: functional
# [19] = test system: HCT-116; test: Induction of apoptosis in human HCT116 cells assessed as accumulation of cells at S phase at 0.02 uM measured after 48 hrs by Annexin V-PI Flow cytometry assay (reference value: 31.25%); format: functional
# [20] = Unbound drug concentration in mouse plasma at 2 uM; format: ADME, cell-free
# [21] = test system: HCT-116; test: In vivo antitumor effect in human HCT-116 cells xenografted mouse model assessed as decrease in dense tumor tissue at 10 to 20 mg/kg, ip twice a day administered 21 consecutive days by H and E staining based assay; format: functional, organism-based; conditions: dose 10-20 mg/kg
# [22] = Toxicity in mouse xenografted with human HCT-116 cells assessed as organ damage by measuring change in heart at 10 mg/kg, ip twice a day administered 21 consecutive days; format: organism-based; conditions: in vivo
# [23] = test system: HCT-116; test: Reduction in GSH level in human HCT-116 cells assessed as reduced GSH content incubated for 12 hrs; format: functional, cell-based; conditions: dose 0.1-2 µM
# [24] = Toxicity in mouse xenografted with human HCT-116 cells assessed as organ damage by measuring change in spleen at 10 mg/kg, ip twice a day administered 21 consecutive days; format: organism-based; conditions: in vivo
# [25] = Toxicity in mouse xenografted with human HCT-116 cells assessed as organ damage by measuring change in kidney at 10 mg/kg, ip twice a day administered 21 consecutive days; format: organism-based; conditions: in vivo
# [26] = test system: HCT-116; test: Antimigratory activity against human HCT116 cells assessed as inhibition of cell migration at 0.05 microM incubated for 24 hrs by wound healing assay relative to control; format: functional; parameters: scale not given: the % may be the effect or the level left
# [27] = test system: HCT-116; test: Induction of apoptosis in human HCT116 cells assessed as accumulation of cells at G1 phase at 0.02 uM measured after 48 hrs by Annexin V-PI Flow cytometry assay (reference value: 51.12%); format: functional
compound,measurement,setting,value
CN1c2ccc(F)cc2C(=O)N2CCc3c([nH]c4ccc(O[C@@H]5O[C@H](CO)[C@@H](O)[C@H](O)[C@H]5O)cc34)[C@H]21,Activity,[1],21.75%
same,half-life,[2],6.2 h
same,half-life,[3],2.41 h
same,Activity,[4],30.19%
same,Activity,[5],Active
same,Tmax,[6],0.5 h
same,inhibition in vivo at 10 mg/kg,[7],72%
same,remaining at 2 h,[8],100%
same,Activity,[9],5.6%
same,inhibition,[10],Active
same,solubility at 0.5 h,[11],2150 µg/mL
same,Cmax,[12],4630 ng/mL
same,Activity,[13],57.53%
same,Activity,[14],Dose-Dependent Effect
same,AUC(0-t) at 24 h,[15],8430 ng·h/mL
same,inhibition,[16],Active
same,Activity,[17],1.56%
same,Activity,[18],10.48%
same,Activity,[19],26.54%
same,Cp(f),[20],85.1 ng/mL
same,Activity,[21],Active
same,Activity,[22],Non-Toxic
same,Activity,[23],Dose-Dependent Effect
same,Activity,[24],Non-Toxic
same,Activity,[25],Non-Toxic
same,Activity,[26],100%
same,Activity,[27],43.27%
